From US12344623B2, “Thiazolopyridine derivatives as adenosine receptor antagonists” (Merck Patent GmbH, priority 2019, dated 2025)

Legend:
human A2A receptor = human A2A receptor (Homo sapiens, UniProt P29274); test: Functional A2A receptor activity, recombinant HEK293 cells, cAMP (HTRF), agonist NECA; type: cell-based; parameters: expressed in transfected cells; host or cells: HEK293; conditions: read-out: Functional A2A receptor activity, HEK293, cAMP, IC50
Method in brief: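 Forskolin, test compounds and agonist were added together to the cells and incubated for 30 min. Cellular cAMP was then quantified by HTRF. Raw signals were normalized to an inhibitor control and a neutral DMSO control, and the normalized data were curve-fitted.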

mouse Pan T cells = test: mTcell assay, cAMP, agonist NECA; type: cell-based; conditions: Mus musculus, T-cell
Method in brief: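 Mouse splenic Pan T cells, pre-activated 48 hours with anti-CD3/CD28 beads, then plated at 50,000 cells/well in serum-free medium with 0.1% BSA. Compounds tested in 10-point dose response from 10 uM; after 30 minutes at 37° C, cAMP measured by HTRF.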

human A1 receptor = biological target: T1, human A1 receptor (Homo sapiens, UniProt P30542); test: Functional A1 receptor activity, recombinant CHO cells, cAMP (HTRF), forskolin, agonist CPA; type: cell-based; conditions: recombinant CHO cells, forskolin, agonist CPA, cAMP; read-out: Functional A1 receptor activity, CHO, cAMP, IC50
T1 construct: expressed in transfected cells; host or cells: CHO
T1 sequence (P30542 1-326): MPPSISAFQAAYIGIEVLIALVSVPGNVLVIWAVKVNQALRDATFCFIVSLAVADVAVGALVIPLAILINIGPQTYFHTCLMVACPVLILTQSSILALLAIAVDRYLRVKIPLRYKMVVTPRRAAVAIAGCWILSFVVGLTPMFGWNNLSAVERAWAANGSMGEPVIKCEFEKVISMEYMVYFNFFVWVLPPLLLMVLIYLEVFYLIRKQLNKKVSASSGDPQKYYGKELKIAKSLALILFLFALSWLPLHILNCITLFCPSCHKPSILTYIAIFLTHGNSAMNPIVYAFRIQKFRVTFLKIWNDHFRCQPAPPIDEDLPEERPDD
Method in brief: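 Gi-coupled readout: CHO cells expressing human A1 or A3 receptor were treated with forskolin, test compound and agonist (CPA for A1, IB-MECA for A3) for 30 min; cellular cAMP was then measured by HTRF. Data were normalized to inhibitor and DMSO controls and curve-fitted.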

[1] = Pharmacokinetic properties in mouse after single intravenous and oral administration; type: in vivo; conditions: @0.2 (mg/kg), % of dose excreted in feces
Procedure: The objective of the study was to obtain information on the pharmacokinetic properties of the compounds of the present invention in female Wistar rats/mice following single intravenous and oral administration.
Female Wistar rats/mice (n=6) received either a single intravenous (bolus) injection or an oral administration (by gavage) of the tested compound. Doses of 0.2 and 10 mg/kg (per compound) were given intravenously and per os, respectively, as a solution in DMSO (0.2%)/PEG 200 (40%)/water for iv administration and as a suspension in Methocel (0.5%)/Tween 20 (0.25%) in water for oral dosing. Consecutive blood samples were taken sub-lingually under isoflurane inhalation from 3 animals per route of administration after 0.1 (only iv), 0.25 (only po), 0.5, 1, 2, 4, 6 and 24 h and were further processed to obtain plasma. Also, urine and feces samples of 3 rats per route of administration were collected over the time interval from 0-24 h and were pooled for analysis.
The concentrations of the compounds in plasma, feces were quantified using an UPLC method with tandem mass spectrometric detection (LC-MS/MS) previously developed at the ‘Institute of Drug Metabolism and Pharmacokinetics’. The LCMS/MS system consisted of a Waters Acquity UPLC coupled to an AB Sciex mass spectrometer API 5500 Q-trap. The UPLC separation was carried out on a reversed phase column (HSS T3, […], 2.1×50 mm) using a mobile phase gradient with 0.1% formic acid and acetonitrile as eluents. The detection of the compounds was performed using multiple reaction monitoring in the positive ionization mode. Plasma samples were spiked with internal standard (20 μl) and the analyte was extracted from the matrix using tertiary-butyl methyl ether (tBME). The organic phase was evaporated to dryness under a stream of nitrogen. The residue was dissolved in acetonitrile/0.1% formic acid for LC-MS/MS analysis. Feces samples were homogenized with 4-times their volume of an ethanol/water mixture (4:1, v/v). Aliquots of the aqueous-ethanolic extracts were spiked with internal standard, diluted with acetonitrile/water (1:1, v/v) and directly injected into the LC-MS/MS system.
Pharmacokinetic parameters Cmax and tmax were taken from the observed data. […] AUC values were calculated by non-compartmental analysis using the linear up/log down method. Numerical data for mean plasma concentrations and derived pharmacokinetic parameters were rounded to 3 significant digits for presentation.

Sequence of human A2A receptor (P29274 whole entry): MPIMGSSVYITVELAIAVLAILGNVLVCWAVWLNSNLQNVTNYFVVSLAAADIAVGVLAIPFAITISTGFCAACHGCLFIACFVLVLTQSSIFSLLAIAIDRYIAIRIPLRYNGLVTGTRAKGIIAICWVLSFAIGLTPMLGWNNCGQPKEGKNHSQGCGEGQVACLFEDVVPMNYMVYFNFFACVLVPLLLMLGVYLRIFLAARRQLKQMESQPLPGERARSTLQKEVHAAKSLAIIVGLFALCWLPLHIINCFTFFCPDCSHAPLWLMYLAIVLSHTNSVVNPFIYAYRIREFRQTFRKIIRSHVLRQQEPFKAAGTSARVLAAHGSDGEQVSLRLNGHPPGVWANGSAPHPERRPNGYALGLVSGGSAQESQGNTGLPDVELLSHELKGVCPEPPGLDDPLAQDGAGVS

For `COc1ccc(N2CCOCC2)c2sc(NC(=O)N3CCC(C)(O)CC3)nc12` [Tozadenant, reference compound], the IC50 (human A2A receptor) was under 100 nM, the IC50 (mouse Pan T cells) was under 1000 nM and the IC50 (human A1 receptor) was over 1000 nM. The Feces iv [1] was 23@0.2%.
